Common to all, as to format: in vivo
The subject of one assay is Botrytis cinerea. Description: Test C: tomato Botrytis on tomato seedlings, sprayed the day before inoculation, visual disease rating. The note with it: 200 ppm, 100 = 100% disease control, 0 = no control relative to controls; for pest or weed control at 200 ppm: Botrytis cinerea, 120 h. An outline of the steps:
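Disease ratings refer to tomato seedlings treated by run-off spraying with compound suspensions, mostly 200 ppm (500 g/ha equivalent) and in marked cases 40 ppm. Carrier: acetone/purified water 50/50 with 250 ppm polyhydric alcohol ester surfactant, after predissolving in acetone.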

For the next assay, the system named is Alternaria solani. Nature of the assay: Test D: tomato early blight, sprayed the day before inoculation, visual disease rating. The note with it: 200 ppm, 100 = 100% disease control, 0 = no control relative to controls; for pest or weed control at 200 ppm: Alternaria solani, 168 h. An outline of the steps: (§1)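 Acetone solution (3% of final volume) of each compound is suspended in 50/50 acetone/water with 250 ppm Trem® 014. Plants are sprayed to run-off at 200 ppm, equivalent to 500 g/ha, or at 40 ppm for starred values.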

For another assay, the system named is Septoria nodorum. Description: Test F: wheat glume blotch on wheat seedlings, sprayed the day before inoculation, visual disease rating. The note with it: 200 ppm, 100 = 100% disease control, 0 = no control relative to controls; for pest or weed control at 200 ppm: Parastagonospora nodorum, 264 h. Put shortly:
as §1

The test system of a further assay is Septoria tritici. Nature of the assay: Test G: wheat leaf blotch on wheat seedlings, sprayed the day before inoculation, visual disease rating. The note with it: 200 ppm, 100 = 100% disease control, 0 = no control relative to controls; for pest or weed control at 200 ppm: Zymoseptoria tritici, 504 h. Put shortly: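 Disease was rated visually after Septoria tritici inoculation, 48 h saturated incubation at 24°C and 19 days in a 20°C growth chamber. Inoculation followed one day after run-off spraying of seedlings with compound at 200 ppm (≈500 g/ha) or, where marked, 40 ppm, formulated in acetone/water with surfactant.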

Assay [1] deals with Puccinia recondita f. sp. tritici. Description: Test H: wheat leaf rust, test suspension sprayed after inoculation of wheat seedlings, visual disease rating. Particulars: 200 ppm, 100 = 100% disease control, 0 = no control relative to controls; for pest or weed control at 200 ppm: Puccinia recondita, 96 h. Put shortly:
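Wheat seedlings inoculated with P. recondita spores, held 24 h saturated at 20 °C, then 2 days in growth chamber at 20 °C; compound suspension (acetone/water with Trem 014) sprayed to run-off afterwards. Rated visually; 200 ppm (≈500 g/ha) unless marked *, which denotes 40 ppm.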

Assay [2] shares this test system. Nature of the assay: Test I: wheat leaf rust on wheat seedlings, sprayed the day before inoculation, visual disease rating. Particulars: 200 ppm, 100 = 100% disease control, 0 = no control relative to controls; for pest or weed control at 200 ppm: Puccinia recondita, 168 h. An outline of the steps: as §1
Assay [3] has as its system Erysiphe graminis f. sp. tritici. Nature of the assay: Test J: wheat powdery mildew on wheat seedlings, sprayed the day before inoculation, visual disease rating. The note with it: 200 ppm, 100 = 100% disease control, 0 = no control relative to controls; for pest or weed control at 200 ppm: Blumeria graminis, 168 h. An outline of the steps:
as §1

In the case of `COc1cc(F)c(-c2c(Cl)nc(Cl)n2-c2ccc(C(F)(F)F)nc2)c(F)c1` [compound 488], in the assay with Botrytis cinerea, the “Test C disease control rating” value is recorded as 99%. Besides, the “Test D disease control rating” value with Alternaria solani is on record as 100%. Also, in the assay with Septoria nodorum, the “Test F disease control rating” value was determined as 100%. The “Test G disease control rating” value with Septoria tritici is given as 93%. Moreover, in assay [1], the “Test H disease control rating” value is 41%. Moreover, the “Test I disease control rating” value in assay [2] turned out to be 100%. In assay [3], the “Test J disease control rating” value was found to be 100%.
Regarding `COc1cc(F)c(-c2c(Cl)nc(Cl)n2-c2ccc(Cl)nc2)c(F)c1` [compound 406], the “Test C disease control rating” value in the assay on Botrytis cinerea was determined as 100%. For the same compound, the “Test D disease control rating” value in the assay with Alternaria solani worked out at 100%. The “Test F disease control rating” value in the assay on Septoria nodorum is reported as 100%. In the assay on Septoria tritici, the “Test G disease control rating” value was 93%. For the same compound, the “Test H disease control rating” value in assay [1] is on record as 100%. In assay [2], the “Test I disease control rating” value was found to be 100%. In assay [3], the “Test J disease control rating” value was 100%.
Broadly, the pest or weed control is how far the test organism was held down. Lower therefore signals a weak effect. Turning to `N#CCc1nc(Br)c(-c2c(F)cccc2F)n1-c1ccc(Cl)cc1` [Compound 509, 4-bromo-1-(4-chlorophenyl)-5-(2,6-difluorophenyl)-1H-imidazole-2-acetonitrile], the pest or weed control at 200 ppm was 98% with Botrytis cinerea; 77% with Alternaria solani; 0% in the assay with Septoria nodorum; 92% in the assay with Septoria tritici; 9% in assay [1]; 85% in assay [2]. This compound gave a pest or weed control at 200 ppm in assay [3] of 78%.
Take `C=Cc1nc(Cl)c(-c2c(F)ccc(OC)c2F)n1-c1cccc(OC(F)F)c1` [Compound 583, 4-chloro-1-[3-(difluoromethoxy)phenyl]-5-(2,6-difluoro-3-methoxyphenyl)-2-ethenyl-1H-imidazole]: the pest or weed control at 200 ppm with Botrytis cinerea was found to be 99%; in the assay with Alternaria solani, 97%; in the assay on Septoria nodorum it was 0%; with Septoria tritici it was 94%; in assay [1], 0%; in assay [2], 85%. Further, the pest or weed control at 200 ppm in assay [3] is 83%.
As to `Fc1cc(F)c(-c2c(Cl)nc(Br)n2-c2cccc(OC(F)(F)F)c2)c(F)c1` [compound 605], the “Test C disease control rating” value in the assay on Botrytis cinerea was found to be 19%. In addition, the “Test D disease control rating” value with Alternaria solani worked out at 0%. For the same compound, the “Test F disease control rating” value in the assay with Septoria nodorum is 0%. For the same compound, the “Test G disease control rating” value in the assay on Septoria tritici turned out to be 73%. Moreover, in assay [1], the “Test H disease control rating” value was found to be 0%. Besides, in assay [2], the “Test I disease control rating” value was determined as 0%. In assay [3], the “Test J disease control rating” value was determined as 94%.
On to `Fc1ccc(-n2c(Cl)nc(Cl)c2-c2ccc(Cl)c(F)c2)c(Cl)c1` [compound 302], for which the “Test C disease control rating” value in the assay with Botrytis cinerea is listed as 100%. Also, the “Test D disease control rating” value in the assay with Alternaria solani was determined as 100%. In the assay with Septoria nodorum, the “Test F disease control rating” value came to 0%. Besides, in the assay with Septoria tritici, the “Test G disease control rating” value worked out at 94%. Further, the “Test H disease control rating” value in assay [1] is reported as 17%. Besides, the “Test I disease control rating” value in assay [2] is on record as 98%. Moreover, the “Test J disease control rating” value in assay [3] amounted to 100%.
As for `Cc1cccc(-c2c(C)ncn2-c2ccc(Cl)c(F)c2)n1` [compound 375], in the assay on Botrytis cinerea, the “Test C disease control rating” value is 99%. Moreover, the “Test D disease control rating” value in the assay with Alternaria solani was 26%. Further, the “Test F disease control rating” value in the assay on Septoria nodorum was 0%. For the same compound, the “Test G disease control rating” value with Septoria tritici is listed as 92%. For the same compound, the “Test H disease control rating” value in assay [1] was 32%. The “Test I disease control rating” value in assay [2] is given as 68%. For the same compound, the “Test J disease control rating” value in assay [3] stood at 62%.
For `COc1cncc(F)c1-c1c(Cl)nc(Cl)n1-c1ccc(Cl)c(F)c1` [compound 435], the “Test C disease control rating” value with Botrytis cinerea is reported as 99%. For the same compound, the “Test D disease control rating” value with Alternaria solani is 24%. Further, the “Test F disease control rating” value with Septoria nodorum is reported as 0%. In the assay on Septoria tritici, the “Test G disease control rating” value is 99%. In addition, the “Test H disease control rating” value in assay [1] stood at 0%. Further, in assay [2], the “Test I disease control rating” value is 68%. In addition, the “Test J disease control rating” value in assay [3] was 0%.
